The source of these data is a melting point compilation (Tetko et al.; mined from patent text by program, amines drawn as free bases though some values may be those of a salt).

One may read the melting point as the temperature, or range, at which the solid turns liquid. In turn, `Cc1cc2c(-c3ccc(Br)cc3)c(CC(=O)O)c(=O)oc2cc1Cl` gave a melting point of 238 to 239 °C.

On to `CNN(NC)C(=O)Nc1cccc2c1C(=O)c1c-2n[nH]c1-c1cc(C)sc1C`, for which the melting point came out at 252 °C.

The molecule `CCOC(=O)CNC(=O)CC(O)CBr` (centres undefined) showed a melting point of 59 to 61 °C.

Consider `O=C1CC(c2cccc(-c3ocnc3C(=O)NCCO)c2)=Nc2ccc(-n3cccc3)cc2N1`, for which the melting point was 228 to 230 °C.

As for `Nc1nc2c(ncn2[C@@H]2C[C@H](O)[C@@H](O)[C@H]2O)c(=O)[nH]1` (racemic), the melting point turned out to be 295 °C.

`CN1CCC(=C2c3sccc3C=Cn3ccnc32)CC1` displayed a melting point of 152 °C.

The molecule `COc1ccc(S(=O)(=O)C2(C(=O)O)CCN(CCc3ccccc3)CC2)cc1` came in with a melting point of 208 °C.

Regarding `Cc1cc(C(C)C)cc(C)c1CO`, the melting point was in the range of 75 to 77 °C.

Consider `O=C1SC(Cc2ccc(OCCn3ccc4ccccc43)cc2)C(=O)N1C(c1ccccc1)(c1ccccc1)c1ccccc1` (centres undefined), for which the melting point was in the range of 63.5 to 65.9 °C.

In the case of `COc1ccc(/C=C/c2ccc3c(=O)[nH]ncc3c2)cc1`, the melting point lay within 280 to 289 °C.

`O=C1NC(c2ccccc2)(c2ccccc2)C(=O)N1CO` came in with a melting point of 185 to 189 °C.

In turn, `COc1ccc(C2(O)CCNCC2)cc1` came in with a melting point of 120 to 122 °C.

Take `COc1cc2c3nn(-c4ccc(Cl)cc4)c(=O)c-3c[nH]c2c(OC)n1`: the melting point was 318 to 321 °C.

Molecule `CCN(CC)C(=O)C(C#N)=Cc1cc(O)c(O)c([N+](=O)[O-])c1` displayed a melting point of 156 to 160 °C.

The molecule `Cc1cc(-c2nncc3c(C(C)(C)C)c(OCc4ccncc4)nn23)no1` came in with a melting point of 119 to 121 °C.

Take `CCc1nc2c(C)cc(C)nc2n1Cc1ccc(C(c2ccccc2)C(Br)C(=O)O)cc1` (centres undefined): the melting point was in the range of 117 to 126 °C.

As for `O=C(O)Cc1cccc(F)c1OCCCc1cn(-c2ccc(C(F)(F)F)cn2)nc1C1CCCCC1`, the melting point was 149 to 150 °C.

In turn, `COc1ccccc1-n1c(=O)[nH]c2c(C(N)=O)nc(-c3ccccc3C(F)(F)F)nc21` registered a melting point of 237 to 240 °C.

The molecule `CCc1[nH]n(C2CCCC2)c2nc(-c3ccc4c(c3)CCO4)nc(=O)c1-2` had a melting point of 253 to 254 °C.

In turn, `Fc1ccc(N=c2sc3ccc(Cl)cc3s2)cc1` registered a melting point of 101 to 102 °C.

`Cc1ccc(-n2nc(C#N)cc2-c2ccc(S(C)(=O)=O)cc2)cc1Br` came in with a melting point of 179 to 180 °C.

For the molecule `Cc1nc(N2C[C@H](C)N(Cc3ccc(F)cc3)C2=O)sc1C(=O)NCc1ccc(F)c(F)c1`, the melting point lay in the range of 62 to 65 °C.

Take `Cn1c(-c2ccncc2)n[nH]c1=O`: the melting point lay within 249 to 251 °C.

`CCNC(=O)c1c(C(F)(F)F)cccc1[Si](C)(C)C`: the melting point was in the range of 134 to 135 °C.

For `Cn1c2ccc(F)cc2c(=O)n2nc(C(=O)O)cc12`, the melting point worked out at 295 °C.

Regarding `O=C(O)c1ccc(C#CC=Cc2ccccc2-c2ccc(Cl)cc2)cc1`, the melting point is 135 °C.

`N#Cc1ccc(NC2=C(Cl)C(=O)c3ccccc3C2=O)cc1` yielded a melting point of 188 to 189 °C.

In the case of `Cc1cc(C)cc(NS(=O)(=O)c2ccc(N3CCNC3=O)cc2)c1`, the melting point was in the range of 216 to 218 °C.

Turning to `CCCCCCCCC#Cc1ccc2sc(C=O)cc2c1`, the melting point fell in the range of 45 to 47 °C.

Turning to `COc1ccc2ccc3c(c2c1)CC(NC(C)=O)CO3` (centres undefined), the melting point was determined as 186 °C.

In the case of `C=CCN1C(=O)NC(=C(C(=O)OCC)C(=O)OCC)C1=O`, the melting point was in the range of 91 to 92 °C.

Regarding `CC(=O)c1c(C)c2c(C)[nH]c(-c3ccccc3)c2[nH]c1=O`, the melting point was in the range of 250 to 251 °C.

In turn, `CC(C)(C(=O)O)c1nnc2ccc(NCCCN3CCC(OC(c4ccccc4)c4ccccc4)CC3)nn12` gave a melting point of 155 to 157 °C.

`Cc1cc(C)cc(Nn2cnc(C)c2-c2ccccc2)c1`: the melting point lay in the range of 154 to 156 °C.

For the molecule `CC(C)c1cc(S(N)(=O)=O)c(C(C)C)cc1Br`, the melting point was in the range of 145 to 152 °C.

Consider `O=C(O)c1cc2c(F)ccc(Br)c2s1`, for which the melting point was 249 to 252 °C.

`Cn1c(C(F)(F)F)ccc(-c2cc(S(C)=O)c(Cl)cc2F)c1=O` (centres undefined) registered a melting point of 147 to 148 °C.

In turn, `CCOc1c(CO)cnc2c1c(C)nn2CC` had a melting point of 85 to 86 °C.

Regarding `Cc1cc(Oc2cccc(C(F)(F)F)c2)nn1C(=O)NCC1CCCO1` (centres undefined), the melting point was 101 to 102 °C.

Turning to `CC(C)[C@H](O)[C@@H](CCCCOc1cc(F)ccc1F)n1nc[nH]c1=S` (racemic), the melting point came out at 97 °C.

As to `COC(=O)Nc1nc2cc(S(=O)CC(C)C)ccc2[nH]1` (centres undefined), the melting point was 198 to 201 °C.

The molecule `Clc1cc(Cl)cc(-c2cc3cc(Cl)cc(Cl)c3[nH]2)c1` displayed a melting point of 189 to 190 °C.

`CC(C)(C)OC(=O)N1CC2CN(Cc3ccccc3)CC(C1)O2` displayed a melting point of 100 to 102 °C.

In turn, `COc1ccc(NC(=S)NCCCn2ccnc2)cc1OC` returned a melting point of 160 to 161 °C.

For `COc1cc(NC(NC(C)C(C)(C)C)=C(C#N)S(=O)(=O)c2ccc(Cl)cc2)cc(OC)c1` (centres undefined), the melting point was in the range of 178 to 179 °C.

`O=C(Nc1ccc(CNc2nc(NC3CC3)nc3ccccc23)cc1)c1ccc(F)cc1` gave a melting point of 189 °C.

`COc1ccc(-c2c(N(C)C(C)C)c(=O)c2=O)cc1` came in with a melting point of 109 to 115 °C.

`COC(=O)c1ccc2[nH]nnc2c1C(=O)OC` had a melting point of 147 to 150 °C.

On to `O=C(O)c1cnc2c(NC(=O)c3c(Cl)cccc3Cl)cccc2c1`, for which the melting point is over 250 °C.

Molecule `COCCCNc1nc(N)c(SC)c(F)n1` yielded a melting point of 48 to 64 °C.

With `COC(=O)c1cc(C(=O)CBr)c(OC(C)=O)cc1NC(=O)C(F)(F)F`, the melting point was in the range of 260 to 261 °C.

For `Cc1cc(C)c2ccc(S(=O)(=O)O)nc2n1`, the melting point was over 280 °C.

For `O=C(O)CCC12CC(c3ccccc31)c1ccccc12`, the melting point lay in the range of 185 to 189 °C.

For the molecule `N[C@@H](Cc1ccc(C(F)(F)F)cc1)[C@H](O)c1ccc(Cl)nc1` (racemic), the melting point fell in the range of 103 to 104 °C.

`COC(=O)c1ccc(OCCCC2Cc3c(c(OC)c(OC)c(OC)c3OC)C2)cc1` had a melting point of 70 to 72 °C.

With `CC(=O)Nc1cc(C(=O)c2ccccc2)ccc1[N+](=O)[O-]`, the melting point worked out at 97.8 °C.

Consider `COC(=O)CN(C)c1nc(-c2ccc(-c3ccccc3)cc2)c(C(=O)OC)s1`, for which the melting point is 141 °C.

`O=CC1(c2ccc(Br)cc2)CC=CO1` (centres undefined): the melting point is 154 °C.

Take `O=C(O)C1Cc2c([nH]c3ccccc23)CN1C(=S)SCC=Cc1ccccc1` (centres undefined): the melting point lay in the range of 200 to 202 °C.

For the molecule `CCOC(=O)c1cn2c(cc(-c3cccc(Cl)c3)c3cc(C(c4ccc(Cl)cc4)c4nncn4C)ccc32)n1` (centres undefined), the melting point came to 220 °C.

Consider `CCCc1nn(-c2ccc(C(F)(F)F)cn2)cc1CCCOc1c(CC(=O)O)cccc1C(C)C`, for which the melting point lay in the range of 102 to 103 °C.

In turn, `CC(C)[C@H](NC(=O)OCc1ccccn1)C(=O)N[C@@H](Cc1ccccc1)C[C@H](O)[C@H](Cc1ccccc1)NC(=O)OCc1cccnc1` returned a melting point of 172 to 174 °C.

For `CCNCc1cnc2c(C)c(NC(=O)c3ccc(OC[C@@H]4CCCO4)cc3)ccc2c1`, the melting point is 149 to 151 °C.

`OC12CC3CC(CC(C3)C1=C1C3CC4CC(C3)CC1C4)C2` showed a melting point of 212 to 213 °C.

`CC(=O)Nc1cc(C(F)(F)F)ccc1-c1cc(Oc2ccc3cccnc3c2)ncn1` displayed a melting point of 137 to 138 °C.

In turn, `CNC(=S)Nc1ccccc1N1CCOCC1` gave a melting point of 115 to 116 °C.

In the case of `O=C1C=C(NC(=O)C(=O)c2cn(Cc3cccc(Br)c3)c3ccccc23)CO1`, the melting point lay within 278 to 280 °C.

`CCCCCCCCCCC(O)C(O)CCC(O)C1CCC(=O)O1` (centres undefined) displayed a melting point of 99 to 100 °C.

With `COc1cc2c(Nc3ccc(Cl)cc3F)ncnc2cc1OCCCC(=O)N1CCCC1`, the melting point was in the range of 254 to 256 °C.

For `C#CCNC(=NCCSCc1ccc(CN(C)C)o1)NC#N`, the melting point lay in the range of 122 to 124 °C.

With `CC(=O)Nc1ccnc(-c2ccncc2)n1`, the melting point lay in the range of 218 to 220 °C.

As to `C[C@H](NC(=O)OC(C)(C)C)C(=O)OC[C@@H]1CCCN1c1cccc2c1C(=O)c1ccccc1C2=O`, the melting point came to 110 °C.

As to `CCCCn1c(=O)n2cnnc2c2[nH]c(-c3cc(S(=O)(=O)N4CC(CN(C)C)C4)ccc3OCCC)nc21`, the melting point is 198 °C.

For the molecule `CCOc1ccccc1NC=C1C(=O)N(c2ccc(S(=O)(=O)N3CCCCC3)cc2)N=C1C`, the melting point was determined as 252 °C.

`CCCc1ccc(C(=O)Nc2ccc(C(=O)c3ccccc3)cc2)cc1`: the melting point lay in the range of 119 to 122 °C.

With `Cc1nc(-n2ccc(Oc3ccccc3)cc2=O)sc1C(=O)NCc1ccccc1`, the melting point lay within 67 to 70 °C.

For the molecule `Cc1cc(Oc2cccc(C(F)(F)F)c2)nn1C(=O)Nc1cccc([N+](=O)[O-])c1`, the melting point was in the range of 83 to 86 °C.

With `COC(=O)c1ccccc1NN=Cc1ccccc1`, the melting point is 66.5 to 67.5 °C.

For the molecule `Cc1ccsc1C(=O)Nc1ccc(-n2nc(C(F)(F)F)cc2C(F)(F)F)cc1`, the melting point lay within 185 to 188 °C.

`COc1cc2c(cc1OC)C(=O)CC(C)(C)O2`: the melting point is 105 to 106 °C.

Consider `Oc1ccc(CNc2n[nH]c3ncnc(Nc4cccc(Cl)c4)c23)cc1Cl`, for which the melting point is 220 °C.

In the case of `Cc1cc(Oc2c(Cl)cc(C(F)(F)F)cc2Cl)nn1C(=O)NC1CCCC1`, the melting point was 90 to 92 °C.

Regarding `CCOc1nc(N2CCSCC2)nc(Cl)c1[N+](=O)[O-]`, the melting point fell in the range of 149 to 150 °C.

With `O=C(Nc1ccc2[nH]c(=O)oc2c1)C(=O)N1CCC(Cc2ccc(F)c(F)c2)CC1`, the melting point came out at 233 °C.

For the molecule `CCCCNc1nc2cnnc(OCC)c2cc1C(=O)OCC`, the melting point was in the range of 98 to 99 °C.

On to `O=C(NCCN1CCC(O)(c2ccc(Cl)cc2)CC1)c1ccccc1`, for which the melting point worked out at 169 °C.

On to `CCCCOC(=O)c1ccc(N(C)C=Nc2ccc(C(=O)OCC)cc2)cc1`, for which the melting point fell in the range of 83 to 85 °C.

Molecule `O=[N+]([O-])c1cc(C(F)(F)F)ccc1NCCO` showed a melting point of 74.9 °C.

In the case of `CCOC(=O)c1nc2ccc(OC)cc2nc1SCC`, the melting point was 70 °C.
